From patent US20090176817A1, “Method of Treatment of Diarrhea-Predominant Irritable Bowel Syndrome in a Subject” (priority 2005, published 2009)
Marks after values point to notes of the source that are not given here.

What was measured:
Type in all cases: in vivo, human
[1] = tested on: diarrhea-predominant IBS subjects; experiment: Study S241.3.011: safety
From the text: The primary efficacy parameter was the number of months that a subject was a responder for IBS symptoms (abdominal pain, abdominal discomfort, abnormal bowel habits) over the 12-week treatment period. A responder for a month (monthly responder) was defined as a subject who answered the weekly question with “yes” at least twice for that month. The two main secondary efficacy parameters were the monthly responder rates based on the “adequate relief” questions regarding abdominal pain/discomfort and abnormal bowel habits during the 12-week treatment period. The overall response rate and responder rate for the weekly diary questions on adequate relief at each month and all months, the adequate relief rate, the number of subjects with adequate relief by week, daily diary questions, IBS-QOL scores, and the interruption of activities were also assessed. Safety was evaluated by physical examination, ECG, vital signs, laboratory evaluations, concomitant medications, and AEs.

healthy subjects = experiment: Study K.241.5012: colonic transit time, healthy young subjects; conditions: mean (SD); for Transit Times, Colon Total: null hypothesis not rejected vs placebo
From the text: (§1) The effect of cilansetron on gastric emptying time and colonic transit time has been studied in 1 clinical study in healthy young subjects and 2 studies in elderly subjects. For measurement of gastric emptying time, breath samples for the determination of the ^12C/^13C ratio were taken on the last day of each treatment period immediately after ingestion of a ^13C labeled meal. The patients' breath was collected in separate 15-minute intervals, for four hours in total. ^13CO2 measurements were performed with an isotope ratio mass spectrometer. The half-life (TK) and lag-time (Tlag), which describe the duration of gastric emptying, were used as the primary parameters to evaluate gastric emptying time. In all 3 studies, colonic transit time was measured by administration of radio-opaque markers for the last six days of each treatment period, followed by a single abdominal X-ray image at 24 hours after ingestion of the last set of markers. The numbers of markers within the colon were used to calculate segmental (right colon, left colon, and rectosigmoid) and total colonic transit time.
Study K.241.5013 was a randomized, double-blind, placebo-controlled, 3-way crossover study in 12 healthy male subjects (ITT population), aged 20-27 years. Subjects received cilansetron 4 mg, cilansetron 8 mg, or placebo orally TID for 14 days during each of the treatment periods, with a 14-day washout between periods. The primary efficacy parameter was the total mean colonic transit time during each treatment and the secondary parameters were the segmental colonic transit times and the gastric emptying measurements. A one-sided Dunnett t-test procedure was used to compare efficacy parameters between the cilansetron and placebo treatments.

[2] = tested on: healthy, elderly subjects; experiment: Study K.241.5013: gastric emptying time, elderly, 4 mg TID; conditions: 4 mg TID oral 14 days, mean (SD)
From the text: as §1
Studies K.241.5013 and K.241.5014 were randomized, double-blind, placebo-controlled, 2-way crossover studies in 8 healthy male and female elderly subjects, each (ITT population, aged 64-83 years in K.241.5013 and 66-84 years in K.241.5014). […]

With `Cc1nccn1C[C@H]1CCc2c(c3cccc4c3n2CCC4)C1=O` [Cilansetron, (R)-(−)-4,5,6,8,9,10-hexahydro-10-[(2-methyl-1H-imidazol-1-yl)methyl]-11H-pyrido-[3,2,1-jk]-carbazol-11-one] the “Number of subjects who died during the three-month treatment period” value ([1]; 2 mg TID, 388 randomized, S241.3.011) was 1 (<1) n (%), the Constipation ([1]; female, human, in vivo, 3 months) was 26% and the “Fecal occult blood positive and/or blood in stool” value ([1]; human, in vivo) was 7%. The Abdominal distension ([1]; human, in vivo, 3 months) was 5%, the “Abdominal pain NOS” value ([1]; human, in vivo, 3 months) was 6% and the Abdominal pain upper ([1]; human, in vivo, 3 months) was 2%. For the same compound, the Constipation ([1]; human, in vivo, 3 months) was 20%, the Flatulence ([1]; human, in vivo, 3 months) was 4% and the “Serious AEs” value ([1]; human, in vivo, 3 months) was 2%. The “Subjects with at least one TEAE” value ([1]; human, in vivo, 3 months) was 69%, the “At least one TEAE, entire four-month period” value ([1]; human, in vivo, 4 months) was 78% and the “TEAEs leading to permanent discontinuation” value ([1]; in vivo) was “Eleven”. The Constipation ([1]; male, human, in vivo, 3 months) was 8%, the “Transit Times, Colonic Segments Left” value (healthy subjects; 4 mg TID oral 14 days) was 24.2 (12.9) hours and the “Transit Times, Colonic Segments Rectosigmold” value (healthy subjects; 4 mg TID oral 14 days) was 15.8 (13.5) hours. For the same compound, the “Transit Times, Colonic Segments Right” value (healthy subjects; 4 mg TID oral 14 days) was 9.4 (9.5) hours, the “Transit Times, Colon Total” value (healthy subjects; 4 mg TID oral 14 days) was 49.4 (24.6)^a hours and the “Transit Times, Colonic Segments Left” value (healthy subjects; 8 mg TID oral 14 days) was 25.8 (16.7) hours. The “Transit Times, Colonic Segments Rectosigmold” value (healthy subjects; 8 mg TID oral 14 days) was 16.2 (11.9) hours, the “Transit Times, Colonic Segments Right” value (healthy subjects; 8 mg TID oral 14 days) was 11.8 (13.9) hours and the “Transit Times, Colon Total” value (healthy subjects; 8 mg TID oral 14 days) was 53.8 (28.5)^a hours. The “gastric emptying time Tlag” value [2] was 122 (24) min and the “gastric emptying time T½” value [2] was 183 (32) min.
